Source: publication PMC10094510, “Novel Cannabinoid Receptor 2 (CB2) Low Lipophilicity Agonists Produce Distinct cAMP and Arrestin Signalling Kinetics without Bias” (International Journal of Molecular Sciences, 2023)

How the values were obtained:
CB2 = test system: CB2; parameters: method as in PMID 31024316; conditions: cited from earlier work
human CB2 [1] = target: T1, human CB2 (Homo sapiens, UniProt P34972, Q63R); test: Real-time BRET CAMYEL cAMP biosensor, forskolin-stimulated HEK-293S cells transfected with human CB2; format: cell-based; conditions: for 2.5 min EC75 concentration (log[compound] M): cAMP assay, calculated from mean EC50 at 2.5 min, Figure S1; for time of peak cAMP response (maximal efficacy): during 20 min stimulation; for time of peak cAMP response (maximal efficacy) / cAMP ΔEmax (absolute magnitude percentage decrease from 100%): 5 μM forskolin; for cAMP ΔEmax (absolute magnitude percentage decrease from 100%) / decrease in cAMP pEC50 in comparison with CP55,940: mean over 20 min stimulation; for cAMP ΔEmax (absolute magnitude percentage decrease from 100%): normalised to V 0% and F 100%
T1 construct: HA (N); 3TCS (N); expressed in transfected cells; host or cells: HEK-293S cells, transient transfection (PEI max)
Experimental: (§1) HEK-293S cells (HEK-S; generously provided by Professor David Poyner, Aston Research Centre, RRID:CVCL_A784 [48]) were maintained in T75 flasks (Corning-Costar) with Dulbecco’s Modified Eagle’s Medium high glucose with phenol red, L-glutamine and sodium pyruvate (DMEM; Cytiva SH30243), and 8% foetal bovine serum (FBS; NZ-origin, Moregate Biotech) at 37 °C in a humidified atmosphere containing 5% CO2.
(§2) Poly-D-Lysine (PDL) (Sigma-Aldrich) at 0.05 mg/mL in PBS was incubated in wells of 96-well Solid White Flat Bottom Polystyrene TC-treated Microplate (Corning-Costar) at 37 °C for 1 h, then washed with PBS prior to seeding and transfection. Cells were seeded at 45,000 cells/well in DMEM supplemented with 12% FBS.
(§3) Plasmids encoding human CB2 (HA-3TCS-hCB2 63R pcDNA5/FRT; 28.5 ng per well) or no receptor (pcDNA5/FRT/CAT; 23.5 ng per well; Thermo Fisher Scientific, Waltham, MA, USA), and either His-CAMYEL (in pcDNA3L; 24 ng per well; ATCC MBA-277; previously described in [49]), or a mix of Rluc8-hβ-arrestin2-Sp1 (in pcDNA3; 0.5 ng per well; previously described in [19]) and Mem-linker-Citrine-SH3 (in pcDNA3; 20 ng per well; previously described in [19, 50]) were diluted in DMEM. Diluted DNA was then co-incubated with polyethyleneimine max (PEI max; Polysciences, Warrington, PA, USA) (Total DNA:PEI ratio of 1:7.5 or 1:6.7 for cAMP or β-arrestin-2 experiments, respectively) in DMEM for 1 h at room temperature (~19–21 °C). These transfection mixes were then added to plated cells, resulting in a final concentration of 8% FBS. Plates were incubated for ~48 h before assaying.
(§4) The protocol for measuring levels of cellular cAMP via real-time BRET biosensor (CAMYEL) is adapted from previous publications. In all cAMP experiments, forskolin (Tocris Bioscience, Bristol, UK) was used to stimulate the activation of adenylyl cyclase to raise intracellular cAMP levels. Vehicle (DMSO) was maintained at an equivalent concentration across all conditions. Assays were carried out in technical duplicate. Then, ~48 h post-transfection, plating media was aspirated, and wells were washed with H+B, consisting of HBSS (Life Technologies) and 1 mg/mL BSA (ICPbio). H+B was then added to the wells to initiate a 30 min serum starve at 37 °C. Post-serum starve, coelenterazine h (final concentration 5 μM, NanoLight Technologies, Norman, OK, USA, #301) was added to the wells, and a 5 min pre-reading was conducted using the LUMIstar® Omega luminometer (Rluc and YFP emissions detected at 460 nm and 535 nm, respectively; BMG Labtech, Ortenberg, Germany). Next, forskolin (final concentration 5 μM) was added to all wells (except vehicle-only wells which received DMSO), and plate reading resumed for 5 min. Lastly, CB2 compounds of interest with forskolin, vehicle with forskolin, or vehicle without forskolin, were added to their respective wells, and a final 20 min read was conducted. All compounds and reagents were diluted in H+B prior to addition to the plate. For β-arrestin-2 recruitment assays, an equivalent procedure was followed except no forskolin was included in the assay stimulations.
(§5) BRET ratios were calculated by dividing YFP emissions by Rluc emissions, then for the cAMP assay, normalised to the mean of baseline ratio reads (where only coelenterazine h was present) to eliminate any variability present prior to drug addiction. An increase in BRET ratio indicated a decrease in cAMP levels or increase in β-arrestin-2 recruitment. Lowess smoothing (GraphPad Prism) was applied to individual technical replicates within an assay. Concentration response curves for the mean of technical replicates (CRC; “log(agonist) vs. response (three parameters)” nonlinear regression curve model, Hill slope constrained to 1) were drawn for the mean ratios over 20 min stimulation or individual time-points.

human CB2 [2] = target: T1, human CB2; test: Real-time BRET β-arrestin-2 plasma membrane translocation, HEK-293S cells transfected with human CB2; format: cell-based; conditions: for β-arrestin-2 translocation ΔEmax (% increase above V): normalised to vehicle 100%
Experimental: as §1, §2, §3, §4, §5

human CB1 = target: T2, human CB1 (Homo sapiens, UniProt P21554); test: Competition radioligand binding assay ([3H]-CP55,940), hCB1 membranes
T2 construct: pplss (N); 3HA (N); expressed in transfected cells
Experimental: Preparation of hCB1- and hCB2-membranes from a HEK pplss-3HA-hCB1 cell line and HEK Flp-in HA-3TCS-hCB2 63R cell line, respectively, followed the protocol described previously. […] The concentration of DMSO was kept equivalent across all test conditions. All dilutions were dispensed into a 96-well, polypropylene V-bottom plate (Gene Era Biotech, Hangzhou, China). […] All conditions were carried out in technical duplicate. The plate was then sealed, tap-mixed, then incubated at 30 °C for 1 h. A total of 50 µL of 0.1% PEI (Sigma-Aldrich, St. Louis, MI, USA) in MQ water was added to each well of a 96-well GF/C harvest plate (Perkin Elmer) 1 h prior to the harvest. When the incubation finished, vacuum (~5 mmHg) was applied to the harvest plate and wells were washed (50 mM HEPES pH 7.4, 500 mM NaCl, 1 mg/mL BSA, MQ water, ice cold). Subsequently, the contents of the V-bottom plate were transferred to corresponding wells in the harvest plate, wash buffer was used to wash the remaining contents of the V-bottom wells before transferring this to the harvest plate, then the harvest plate was washed an additional three times. The plate was dried for ~24 h at 24 °C. To prepare for reading, the bottom of the plate was sealed, each well received 50 µL of Irgasafe Plus scintillation fluid (Perkin Elmer), followed by sealing the top of the plate. Plates were read in a Wallac MicroBeta® TriLux Liquid Scintillation Counter (Perkin Elmer) with a read time of 2 min/well.
(§6) GraphPad Prism (v8.0.2; GraphPad Software, San Diego, CA, USA) was used to fit nonlinear regression curves (One site—Fit Ki) to the corrected counts per minutes (CCPM) of each displacer to determine their pKi (negative log Ki). […] Mean and SEM of pKi values were calculated from independent experiments. […] CB2 selectivity was calculated as […].

human CB2 [3] = target: T1, human CB2; test: Competition radioligand binding assay ([3H]-CP55,940), hCB2 membranes; conditions: for CB2/CB1 Selectivity: CB2 selectivity relative to CB1, from Ki (or Kd); for displacement of [3H]-CP55,940 from CB2: full displacement = ≥ 75% relative to 1 µM CP55,940
Experimental: The concentration of DMSO was kept equivalent across all test conditions. All dilutions were dispensed into a 96-well, polypropylene V-bottom plate (Gene Era Biotech, Hangzhou, China). […] All conditions were carried out in technical duplicate. The plate was then sealed, tap-mixed, then incubated at 30 °C for 1 h. A total of 50 µL of 0.1% PEI (Sigma-Aldrich, St. Louis, MI, USA) in MQ water was added to each well of a 96-well GF/C harvest plate (Perkin Elmer) 1 h prior to the harvest. When the incubation finished, vacuum (~5 mmHg) was applied to the harvest plate and wells were washed (50 mM HEPES pH 7.4, 500 mM NaCl, 1 mg/mL BSA, MQ water, ice cold). Subsequently, the contents of the V-bottom plate were transferred to corresponding wells in the harvest plate, wash buffer was used to wash the remaining contents of the V-bottom wells before transferring this to the harvest plate, then the harvest plate was washed an additional three times. The plate was dried for ~24 h at 24 °C. To prepare for reading, the bottom of the plate was sealed, each well received 50 µL of Irgasafe Plus scintillation fluid (Perkin Elmer), followed by sealing the top of the plate. Plates were read in a Wallac MicroBeta® TriLux Liquid Scintillation Counter (Perkin Elmer) with a read time of 2 min/well.
as §6

T2 sequence (P21554 whole entry): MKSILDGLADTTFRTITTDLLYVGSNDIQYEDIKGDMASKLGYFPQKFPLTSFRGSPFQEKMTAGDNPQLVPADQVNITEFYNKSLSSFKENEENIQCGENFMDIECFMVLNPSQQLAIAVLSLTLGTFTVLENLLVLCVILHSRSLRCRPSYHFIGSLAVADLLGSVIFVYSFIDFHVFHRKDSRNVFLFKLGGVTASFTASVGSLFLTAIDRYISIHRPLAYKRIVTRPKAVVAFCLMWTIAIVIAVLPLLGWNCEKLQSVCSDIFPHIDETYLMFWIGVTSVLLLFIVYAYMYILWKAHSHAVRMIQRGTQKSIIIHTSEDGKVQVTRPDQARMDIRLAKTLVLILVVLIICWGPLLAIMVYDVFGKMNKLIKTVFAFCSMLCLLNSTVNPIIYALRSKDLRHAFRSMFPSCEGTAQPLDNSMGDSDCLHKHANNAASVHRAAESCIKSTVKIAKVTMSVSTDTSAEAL
T1 sequence (P34972 whole entry Q63R): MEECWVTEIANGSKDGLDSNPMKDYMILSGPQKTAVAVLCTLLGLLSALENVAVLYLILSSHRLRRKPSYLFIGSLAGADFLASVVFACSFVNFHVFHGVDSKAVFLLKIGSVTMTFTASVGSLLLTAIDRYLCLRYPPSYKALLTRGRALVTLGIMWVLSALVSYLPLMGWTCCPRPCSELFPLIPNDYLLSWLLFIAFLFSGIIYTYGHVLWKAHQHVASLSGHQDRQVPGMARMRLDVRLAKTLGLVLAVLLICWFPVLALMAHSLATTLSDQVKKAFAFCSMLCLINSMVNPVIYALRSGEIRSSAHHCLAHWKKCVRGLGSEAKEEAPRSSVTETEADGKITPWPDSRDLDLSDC

Compound: Cc1c(C(=O)c2cccc3ccccc23)c2cccc3c2n1[C@H](CN1CCOCC1)CO3 [WIN55,212-2]
- agonist type for β-arrestin-2 recruitment to CB2 in comparison with CP55,940 (CB2): weak partial agonist

Compound: CCCCCCC(C)(C)c1ccc([C@@H]2C[C@H](O)CC[C@H]2CCCO)c(O)c1 [CP55,940, reference compound]
- 2.5 min EC75 concentration (log[compound] M) (human CB2 [1]): -7.3 log M
- time of peak cAMP response (maximal efficacy) (human CB2 [1]): ≤ 2.5 min
- cAMP ΔEmax (absolute magnitude percentage decrease from 100%) (human CB2 [1]): 35.1% ± 3.5%
- increase of cAMP response potency during the acute 5 min period (human CB2 [1]; not significant vs 2.5 min): ~ 0.5 log units
- time to plateau of β-arrestin-2 efficacy (human CB2 [2]; 20 min stimulation): approximately 5 min
- overall increase of β-arrestin-2 response potency during the stimulation (human CB2 [2]; 20 min stimulation, vs 1.5 min): ~ 0.7 log units
- β-arrestin-2 translocation ΔEmax (% increase above V) (human CB2 [2]; mean over 20 min stimulation): 17.6% ± 0.8%

Compound: CCc1c(C)cc(C(=O)NC2(C(=O)NCCOCCOCCOCCO)CCCCC2)c(=O)n1Cc1ccc(F)cc1 [UOSS76]
- Ki (human CB1): ~29.5 µM
- EC50 (human CB2 [1]): 0.1 µM
- 2.5 min EC75 concentration (log[compound] M) (human CB2 [1]): -6.9 log M
- time of peak cAMP response (maximal efficacy) (human CB2 [1]): around 4.5 min
- decrease in cAMP pEC50 in comparison with CP55,940 (human CB2 [1]): ~ 1.0 log units
- cAMP ΔEmax (absolute magnitude percentage decrease from 100%) (human CB2 [1]): 26.1 ± 3.6%
- decrease of cAMP response potency during the early phase of stimulation (human CB2 [1]; not significant vs 4.5 min): ~ 0.7 log units
- EC50 (human CB2 [2]): 0.631 µM
- smaller β-arrestin-2 pEC50 than CP55,940 (human CB2 [2]; mean over 20 min stimulation): ~ 1.0 log units
- weaker β-arrestin-2 potency than UOSS77 (human CB2 [2]; mean over 20 min stimulation): ~ 0.7 log units
- β-arrestin-2 translocation ΔEmax (% increase above V) (human CB2 [2]; mean over 20 min stimulation): 7.9 ± 1.2%
- Ki (human CB2 [3]): 0.813 µM
- CB2/CB1 Selectivity (human CB2 [3]): ~40
- displacement of [3H]-CP55,940 from CB2 (human CB2 [3]): fully displaced
- reduction of CB2 pKi vs. UOSS77 (human CB2 [3]; p = 0.015): 0.6 log units

Compound: CCc1c(C)cc(C(=O)NC2(C(=O)NCCOCCOCCO)CCCCC2)c(=O)n1Cc1ccc(F)cc1 [UOSS75]
- Ki (human CB1): ~15.1 µM
- EC50 (human CB2 [1]): 0.01 µM
- 2.5 min EC75 concentration (log[compound] M) (human CB2 [1]): -7.6 log M
- time of peak cAMP response (maximal efficacy) (human CB2 [1]): 2.5 min
- cAMP ΔEmax (absolute magnitude percentage decrease from 100%) (human CB2 [1]): 31.4 ± 3.9%
- EC50 (human CB2 [2]): 0.1 µM
- β-arrestin-2 translocation ΔEmax (% increase above V) (human CB2 [2]; mean over 20 min stimulation): 8.5 ± 0.7%
- Ki (human CB2 [3]): 0.148 µM
- CB2/CB1 Selectivity (human CB2 [3]): ~100
- displacement of [3H]-CP55,940 from CB2 (human CB2 [3]): fully displaced

Compound: O=C(N[C@H]1CC[C@@H](O)CC1)c1cc2cccnc2n(CCN2CCOCC2)c1=O [UOMM18]
- Ki (human CB1): > 100 µM
- displacement of [3H]-CP55,940 at CB1 (human CB1; highest applied concentration 31.6 µM): did not detectably displace
- EC50 (human CB2 [1]): 0.0631 µM
- 2.5 min EC75 concentration (log[compound] M) (human CB2 [1]): -7.1 log M
- time of peak cAMP response (maximal efficacy) (human CB2 [1]): 2.5 min
- decrease in cAMP pEC50 in comparison with CP55,940 (human CB2 [1]): ~ 0.8 log units
- cAMP ΔEmax (absolute magnitude percentage decrease from 100%) (human CB2 [1]): 28.0 ± 2.4%
- EC50 (human CB2 [2]): 0.126 µM
- β-arrestin-2 translocation ΔEmax (% increase above V) (human CB2 [2]; mean over 20 min stimulation): 7.3 ± 0.6%
- agonist type for β-arrestin-2 translocation (human CB2 [2]; relative to CP55,940): partial agonist
- Ki (human CB2 [3]): 0.724 µM
- CB2/CB1 Selectivity (human CB2 [3]): >126
- CB2 affinity lower than pKd of CP55,940 (human CB2 [3]; p < 0.0001): ~ 2.5 log units
